{"source": "patent US20260242418A1", "about": "“CYCLIC PEPTIDES WITH ANTIBACTERIAL ACTIVITY AGAINST MULTIDRUG RESISTANT (MDR) PATHOGENS” (priority 2022, published 2026)", "key": {"human cells": {"system": "human cells", "conditions": "cited from earlier work"}, "[1]": {"conditions": "in vivo, iv; cited from earlier work"}, "Acinetobacter baumannii": {"system": "Acinetobacter baumannii", "format": "cell-based", "from_the_text": "(§1) Minimum Inhibitory Concentration (MIC) of a peptide of SEQ D NO: 4 (abbreviated PLP-3) and colistin against a collection of clinically relevant and commercially available bacterial strains was obtained via broth microdilution. The protocol for antimicrobial activity determination, detailed below, consisted in a modification of Clinical & Laboratory Standards Institute (CLSI) Guidelines.\n(§2) MIC is the value defined as the lowest concentration of an antimicrobial, in these tests either PLP-3 or colistin, which inhibits the macroscopic growth of a bacterial strain after 18-22 h incubation at 37° C. The results from these assays are obtained via visual identification of the bacterial bottom at the end of the wells of the testing plate. Since the wells contain decreasing concentrations of the compounds, the final result is indicated as a concentration, MIC, expressed in μg/mL of the agent (in this case PLP-3 or colistin).\n(§3) Bacterial strains were streaked in Columbia Agar plates (Columbia Agar with 5% Sheep Blood 90 mm Stacker plates, BD) and incubated overnight at 37° C. Polypropylene round bottomed 96-well plates were filled with 50 μL/well of Mueller-Hinton Broth (MHB, CM0405, 500 g, ThermoFisher Scientific™ Oxoid™) and 50 μL of either colistin or PLP-3 (at 4× the chosen initial concentration of the test) were added to the first well of each row of the plate followed by serial dilutions up until the 10th column of the plate.\n(§4) Finally, strain inoculums were prepared by diluting 1:100 0.5 McFarland solutions in MHB. Plates were then inoculated with 50 μL of the inoculums and covered with film before 18 to 22 h incubation at 37 C.\n(§5) Three biological and three technical replicates were performed per strain.\n(§6) Broth microdilution testing of 15 strains of each species provided MIC50 and […] values (Table 4). Strains were either from clinical origin, relevant to current clinical situation, or commercially available strains belonging to the American Type Culture Collection (ATCC), namely: A. baumannii 17978 and 19606, K. pneumoniae 13883 and P. aeruginosa 27853.\n(§7) This panel represents an example of relevant MDR, colistin resistant and colistin susceptible strains from which to compare results. The minimum inhibitory concentration (MIC) is the lowest concentration of a chemical, usually a drug, which prevents visible growth of a bacterium or bacteria. MIC50 represents the antimicrobial concentration value that inhibits the growth of 50% of the bacterial strains and […] of each species from the tested panel of strains. Being colistin both a peptide and a last-resource antibiotic, it was included in these assays for comparison against a commercially available antibiotic."}, "Klebsiella pneumoniae": {"system": "Klebsiella pneumoniae", "format": "cell-based", "from_the_text": "as §1, §2, §3, §4, §5, §6, §7"}, "Pseudomonas aeruginosa": {"system": "Pseudomonas aeruginosa", "format": "cell-based", "from_the_text": "as §1, §2, §3, §4, §5, §6, §7\nP. aeruginosa ATCC 27853 strain (commercially available from the American Type Collection Culture) was used as control by performing MICs to colistin and PLP-3 in all broth microdilution assays"}, "[2]": {"conditions": "panel of 15 A. baumannii strains"}, "[3]": {"conditions": "panel of 15 K. pneumoniae strains"}, "[4]": {"conditions": "panel of 15 P. aeruginosa strains"}}, "note": "Read-outs that look alike come from different tables or passages of the source. Positions of bridges follow the written chain, without caps; N, C: chain ends. Non-standard residues stand in square brackets, D forms with d. Residues, ends and D or L forms follow the SMILES beside them. No end group written: not given here. dDab = NCC[C@@H](N)C(=O)O; Orn = NCCC[C@H](N)C(=O)O; Dab = NCC[C@H](N)C(=O)O"}
{"molecule": "RGGRLCYCRRRFCVCVGR (disulfide 8-13, 6-15; listed as Sus scrofa) [PG-1]", "values": [{"measurement": "haemolysis and toxicity against human cells", "setting": "human cells", "result": "significant haemolysis and toxicity"}]}
{"molecule": "CC[C@H](C)[C@@H]1NC(=O)[C@H](Cc2c[nH]c3ccccc23)NC(=O)[C@H]([C@@H](C)O)NC(=O)[C@@H]2CCCN2C(=O)[C@H]2CCCN2C(=O)[C@H](CO)NC(=O)[C@H](C)NC(=O)[C@H](CCN)NC(=O)[C@H](CCN)NC(=O)[C@H](Cc2c[nH]c3ccccc23)NC(=O)[C@H](CCN)NC(=O)[C@@H](CCN)NC(=O)[C@H](CCCN)NC(=O)[C@H](CCN)NC1=O", "note": "[Murepavadin, cyclo[Ala-Ser-D-Pro-Pro-Thr-Trp-Ile-Dab-Orn-D-Dab-Dab-Trp-Dab-Dab]] (cyclo(TWI[Dab][Orn][dDab][Dab]W[Dab][Dab]AS[dP]P))", "values": [{"measurement": "adverse finding in phase-III clinical trials", "setting": "[1]", "result": "kidney damage in over half of the patients"}]}
{"molecule": "colistin [reference compound]", "values": [{"measurement": "MIC50", "setting": "Acinetobacter baumannii; [2]", "result": "0,5 μg/mL"}, {"measurement": "MIC90", "setting": "Acinetobacter baumannii; [2]", "result": 64, "unit": "µg/mL"}, {"measurement": "MIC", "setting": "Acinetobacter baumannii; strain 8* (MDR)", "result": 0.5, "unit": "µg/mL"}, {"measurement": "MIC", "setting": "Acinetobacter baumannii; strain 19* (MDR)", "result": 0.25, "unit": "µg/mL"}, {"measurement": "MIC", "setting": "Acinetobacter baumannii; strain 80* (MDR)", "result": 0.5, "unit": "µg/mL"}, {"measurement": "MIC", "setting": "Acinetobacter baumannii; strain 174* (MDR)", "result": 0.25, "unit": "µg/mL"}, {"measurement": "MIC", "setting": "Acinetobacter baumannii; strain 180* (MDR)", "result": 0.5, "unit": "µg/mL"}, {"measurement": "MIC", "setting": "Acinetobacter baumannii; strain 210* (MDR)", "result": 8, "unit": "µg/mL"}, {"measurement": "MIC", "setting": "Acinetobacter baumannii; strain 226* (MDR)", "result": 0.25, "unit": "µg/mL"}, {"measurement": "MIC", "setting": "Acinetobacter baumannii; strain 253* (MDR)", "result": 0.25, "unit": "µg/mL"}, {"measurement": "MIC", "setting": "Acinetobacter baumannii; strain 317", "result": 0.25, "unit": "µg/mL"}, {"measurement": "MIC", "setting": "Acinetobacter baumannii; strain 383", "result": 0.25, "unit": "µg/mL"}, {"measurement": "MIC", "setting": "Acinetobacter baumannii; strain 19606", "result": 0.5, "unit": "µg/mL"}, {"measurement": "MIC", "setting": "Acinetobacter baumannii; strain ATCC 17978", "result": 0.25, "unit": "µg/mL"}, {"measurement": "MIC", "setting": "Acinetobacter baumannii; strain CR17* (MDR)", "result": ">64", "unit": "µg/mL"}, {"measurement": "MIC", "setting": "Acinetobacter baumannii; strain CR49", "result": 64, "unit": "µg/mL"}, {"measurement": "MIC", "setting": "Acinetobacter baumannii; strain CR86", "result": 64, "unit": "µg/mL"}, {"measurement": "MIC50", "setting": "Klebsiella pneumoniae; [3]", "result": 8, "unit": "µg/mL"}, {"measurement": "MIC90", "setting": "Klebsiella pneumoniae; [3]", "result": ">64", "unit": "µg/mL"}, {"measurement": "MIC", "setting": "Klebsiella pneumoniae; strain 145* (MDR)", "result": 32, "unit": "µg/mL"}, {"measurement": "MIC", "setting": "Klebsiella pneumoniae; strain 398* (MDR)", "result": ">64", "unit": "µg/mL"}, {"measurement": "MIC", "setting": "Klebsiella pneumoniae; strain 545", "result": 0.25, "unit": "µg/mL"}, {"measurement": "MIC", "setting": "Klebsiella pneumoniae; strain 674* (MDR)", "result": 0.25, "unit": "µg/mL"}, {"measurement": "MIC", "setting": "Klebsiella pneumoniae; strain 681* (MDR)", "result": ">64", "unit": "µg/mL"}, {"measurement": "MIC", "setting": "Klebsiella pneumoniae; strain 716* (MDR)", "result": 0.5, "unit": "µg/mL"}, {"measurement": "MIC", "setting": "Klebsiella pneumoniae; strain 741* (MDR)", "result": 0.5, "unit": "µg/mL"}, {"measurement": "MIC", "setting": "Klebsiella pneumoniae; strain 851* (MDR)", "result": 0.5, "unit": "µg/mL"}, {"measurement": "MIC", "setting": "Klebsiella pneumoniae; strain 994* (MDR)", "result": ">64", "unit": "µg/mL"}, {"measurement": "MIC", "setting": "Klebsiella pneumoniae; strain 1052* (MDR)", "result": ">64", "unit": "µg/mL"}, {"measurement": "MIC", "setting": "Klebsiella pneumoniae; strain 1078* (MDR)", "result": 64, "unit": "µg/mL"}, {"measurement": "MIC", "setting": "Klebsiella pneumoniae; strain 1129* (MDR)", "result": 0.5, "unit": "µg/mL"}, {"measurement": "MIC", "setting": "Klebsiella pneumoniae; strain 1478* (MDR)", "result": ">64", "unit": "µg/mL"}, {"measurement": "MIC", "setting": "Klebsiella pneumoniae; strain 1480* (MDR)", "result": 0.25, "unit": "µg/mL"}, {"measurement": "MIC", "setting": "Klebsiella pneumoniae; strain ATCC 13883", "result": 1, "unit": "µg/mL"}, {"measurement": "MIC50", "setting": "Pseudomonas aeruginosa; [4]", "result": "0,5 μg/mL"}, {"measurement": "MIC90", "setting": "Pseudomonas aeruginosa; [4]", "result": 64, "unit": "µg/mL"}, {"measurement": "MIC", "setting": "Pseudomonas aeruginosa; strain 36a", "result": "≤0.125", "unit": "µg/mL"}, {"measurement": "MIC", "setting": "Pseudomonas aeruginosa; strain 38a", "result": 0.25, "unit": "µg/mL"}, {"measurement": "MIC", "setting": "Pseudomonas aeruginosa; strain ATCC 27853 (Table 2)", "result": "≤0.125", "unit": "µg/mL"}, {"measurement": "MIC", "setting": "Pseudomonas aeruginosa; strain ATCC 27853, control in the A. baumannii panel (Table 1)", "result": "≤0.125", "unit": "µg/mL"}, {"measurement": "MIC", "setting": "Pseudomonas aeruginosa; strain ATCC 27853, control in the K. pneumoniae panel (Table 3)", "result": 0.25, "unit": "µg/mL"}, {"measurement": "MIC", "setting": "Pseudomonas aeruginosa; strain C1", "result": 0.5, "unit": "µg/mL"}, {"measurement": "MIC", "setting": "Pseudomonas aeruginosa; strain C2", "result": 1, "unit": "µg/mL"}, {"measurement": "MIC", "setting": "Pseudomonas aeruginosa; strain C3", "result": 0.5, "unit": "µg/mL"}, {"measurement": "MIC", "setting": "Pseudomonas aeruginosa; strain C4", "result": 0.5, "unit": "µg/mL"}, {"measurement": "MIC", "setting": "Pseudomonas aeruginosa; strain R1", "result": ">64", "unit": "µg/mL"}, {"measurement": "MIC", "setting": "Pseudomonas aeruginosa; strain R2", "result": 64, "unit": "µg/mL"}, {"measurement": "MIC", "setting": "Pseudomonas aeruginosa; strain R3* (MDR)", "result": 32, "unit": "µg/mL"}, {"measurement": "MIC", "setting": "Pseudomonas aeruginosa; strain S1", "result": "≤0.125", "unit": "µg/mL"}, {"measurement": "MIC", "setting": "Pseudomonas aeruginosa; strain S2* (MDR)", "result": "≤0.125", "unit": "µg/mL"}, {"measurement": "MIC", "setting": "Pseudomonas aeruginosa; strain S3", "result": 0.5, "unit": "µg/mL"}, {"measurement": "MIC", "setting": "Pseudomonas aeruginosa; strain S4", "result": "≤0.125", "unit": "µg/mL"}, {"measurement": "MIC", "setting": "Pseudomonas aeruginosa; strain S5", "result": "≤0.125", "unit": "µg/mL"}]}
